Test results from US4075206A, “Substituted pyrroloquinoxalinones and diones” (Eli Lilly and Company, priority 1977, dated 1978).

system: erythema produced by an ultra-violet light source on guinea pig skin; assay: Anti-inflammatory: block of UV-light-induced erythema on guinea pig skin (method of Windner et al.); format: in vivo, albino guinea pigs; details: Cavia porcellus; oral; dose producing 50 percent inhibition of the erythemic response; groups of four guinea pigs
Method: The compounds of this invention are anti-inflammatory and anti-thrombotic agents. […] Int. Pharmacodyn, 116, 261 (1958). In this procedure, albino quinea pigs weighing 225- 300 gms. are shaved on the back and chemically depilated 18 to 20 hours before initiation of the test procedures. Animals in groups of 4 are given predetermined dosages of the drug under test with one group being maintained as a control group. The drug is administered by the oral route as a suspension in 1 percent aqueous sodium carboxymethylcellulose. The control animals receive only the suspending median. After having being given the drug or suspension medium only, each group of animals is exposed to a high-intensity ultra-violet light for a predetermined period of time, the ultra-violet light being placed in contact with the depilated skin area on the animals' back. A gummed paper reinforcement is affixed to the lamp lens to provide an unexposed area of contrast for grading the light-produced erythema.
Beginning one hour after exposure and thereafter at half-hour intervals for another 1.5 hours, a trained observer grades erythema using an arbitraty scoring system based upon the degree of contrast and redness formed. […] The following scoring system is used: […]
______________________________________
Score Appearance of Exposed Area
0 No redness and no contrast
1 Slight redness with a faint
2 Slight to moderate redness
with a distinct outline
3 Marked redness with a distinct
Total scores from each treatment group of four guinea pigs are compared to the control treatment, and the percent inhibition calculated as follows: [formula]
If desired, a dose-response graph can be obtained by plotting dose versus percent inhibition, each point representing the average of one treatment group of four guinea pigs. The dose (ED50) in mg/kg cm.^2) which produced a 50 percent inhibition of the erythemic response for the particular compound tested can then be obtained, either directly or by extrapolation. Table I below summarizes the results obtained from testing representative compounds of the invention by the foregoing method.

With CCN1C(=O)CN2C(=O)C(c3ccccc3)c3cccc1c32 (centres unmarked) [1-Ethyl-6-phenyl-1H-pyrrolo[1,2,3-de]quinoxalin-2,5(3H,6H)-dione] as the compound, how does the ED50 read?
The ED50 was 33 mg/kg.

For CN1C(=O)CN2C(=O)C(c3ccccc3)c3cccc1c32 (centres unmarked) [1-Methyl-6-phenyl-1H-pyrrolo 1,2,3-de]quinoxalin-2,5(3H,6H)-dione], which ED50 is on record?
The ED50 was 4.4 mg/kg.

Which ED50 does the source give for CCCN1C(=O)CN2C(=O)C(c3ccccc3)c3cccc1c32 (centres unmarked) [1-n-Propyl-6-phenyl-1H-pyrrolo[1,2,3-de]quinoxalin-2,5(3H,6H)-dione] here?
The ED50 was 47.5 mg/kg.

For O=C1C(c2ccccc2)c2cccc3c2N1CCN3 (centres unmarked) [2,3-dihydro-6-phenyl-1H-pyrrolo[1,2,3-de]quinoxalin-5(6H)-one], which ED50 is on record?
Its ED50 is 7.9 mg/kg.

O=C1CCN2C(=O)C(c3ccccc3)c3cccc(c32)N1 (centres unmarked) [3,4-DIHYDRO-7-PHENYL-1H-PYRROLO[ 1,2,3-ef]-BENZO-[ f]DIAZEPINE-2,6(1H,7H)-DIONE] was tested. Which ED50 did it give?
Its ED50 is 12 mg/kg.

With O=C1CN2C(=O)C(c3ccccc3)(c3ccccc3)c3cccc(c32)N1 [6,6-diphenyl-1H-pyrrolo-[1,2,3-de]quinoxalin-2,5 (3H,6H)-dione] as the compound, how does the ED50 read?
Its ED50 is 36 mg/kg.

Which ED50 does the source give for O=C1CN2C(=O)C(c3ccc(F)cc3)c3cccc(c32)N1 (centres unmarked) [6-(p-fluoro)phenyl-1H-pyrrolo[1,2,3-de]quinoxalin-2,5 (3H,6H)-dione] here?
Its ED50 is 7.7 mg/kg.

For O=C1CN2C(=O)C(c3ccccc3)c3cccc(c32)N1 (centres unmarked) [6-phenyl-1H-pyrrolo[1,2,3-de]quinoxalin-2,5(3H,6H)-dione], which ED50 is on record?
Its ED50 is 0.9 mg/kg.

With CCC1C(=O)Nc2cccc3c2N1C(=O)C3c1ccccc1 (centres unmarked) [6-phenyl-3-ethyl-1H-pyrrolo[1,2,3-de]quinoxalin-2,5(3H,6H)-dione] as the compound, how does the ED50 read?
Its ED50 is 1 mg/kg.

CC1C(=O)Nc2cccc3c2N1C(=O)C3c1ccccc1 (centres unmarked) [6-phenyl-3-methyl-1H-pyrrolo 1,2,3-de]quinoxalin-2,5(3H,6H)-dione] was tested. Which ED50 did it give?
Its ED50 is 2.5 mg/kg.

How did the ED50 turn out when COc1cc2c3c(c1)C(c1ccccc1)C(=O)N3CC(=O)N2 (centres unmarked) [6-phenyl-8-methoxy-1H-pyrrolo[1,2,3-de]quinoxalin-2,5(3H,6H)-dione] was run?
The ED50 was 45 mg/kg.

same assay, conditions: oral; percent inhibition of erythema at 50 mg/kg where an ED50 was not determined

For O=C1CN2C(=O)C(c3ccc(Cl)cc3)c3cccc(c32)N1 (centres unmarked) [6-(4-chlorophenyl)-1H-pyrrolo[1,2,3-de]-quinoxalin-2,5(3H,6H)-dione], which “Inhibition at 50 mg/kg dose” value is on record?
Its value is 48%.

With O=C1CN2C(=O)C(c3ccccc3)c3c2c(cc2ccccc32)N1 (centres unmarked) [6-phenyl-1H-benzo[g]pyrrolo[1,2,3-de]quinoxalin-2,5(3H,6H)-dione] as the compound, how does the “Inhibition at 50 mg/kg dose” value read?
Its value is 42%.

How did the “Inhibition at 50 mg/kg dose” value turn out when O=C1CN2C(=O)C(c3ccccc3)c3cc(Cl)cc(c32)N1 (centres unmarked) [6-phenyl-8-chloro-1H-pyrrolo[1,2,3-de]quinoxalin-2,5(3H,6H)-dione] was run?
Its value is 50%.

Which “Inhibition at 50 mg/kg dose” value does the source give for Cc1cc2c3c(c1)C(c1ccccc1)C(=O)N3CC(=O)N2 (centres unmarked) [6-phenyl-8-methyl-1H-pyrrolo[1,2,3-de]quinoxalin-2,5(3H,6H)-dione] here?
The value was 51%.

system: collagen-induced platelet aggregation; assay: Platelet aggregation test: collagen-induced platelet aggregation after oral dosing (method of Hermann et al.); format: in vivo, guinea pigs; details: Cavia porcellus, 1 h, 2 doses, time zero and 2 hours later, blood 60 minutes after last dose, active = about 50% inhibition of collagen-induced aggregation, N.A. = not active at 100 mg/kg × 2, read-out: P.A. (lowest active dose in the platelet aggregation test)
Method: Certain of the compounds of this invention are also platelet aggregation inhibitors and the results of testing for this activity are also included in Table I. The platelet aggregation test used involves the effect of a drug upon collagen-induced platelet aggregation using the method of Hermann et al., Proc. Soc. Exp. Biol. Med. 136, 548 (1972). According to this procedure, 300- 400 g. guinea pigs are used and the compound is administered by the oral route in 2 doses, at time zero and again 2 hours later, at a series of graded dose levels to groups of 4 pigs each. One group is maintained as a control group. Blood is removed by heart puncture 60 minutes after the last dose, and a platelet-rich plasma prepared therefrom. A stock collagen solution is prepared by solubilizing bovine Achilles tendon with acetic acid. The stock solution contains 0.25 percent collagen, has a pH of 2.8 and is kept under refrigeration. Prior to use, 0.4 ml. of 1M aqueous sodium hydroxide is added to a 1 ml. aliquot of the stock solution, followed by further dilutions with saline (1:2 1:4, 1:8, 1:16, 1:32, etc.) A standard collagen challenge was used, 0.05 ml. of 1:45 dilution, to induce platelet aggregation and the aggregation response of the drugged guinea pigs was compared to that of the controls to determine inhibition of aggregation. The lowest active dose in mg./kg. × 2 is then determined, "active" being defined as giving about 50% inhibition of collagen-induced aggregation. (Activity was determined by computor printout with significance at the 95 percent confidence level being attained at about the 50 percent inhibition level). In Table 1, column 1 gives the name of the compound, column 2, the ED50 calculated as set forth above and column 3, the percent inhibition at a 50 mg/kg dose level where an ED50 was not determined and column 4, the lowest active dose in the platelet aggregation test. N. A. indicates "not active" at 100 mg/kg × 2 in this latter test.

CCN1C(=O)CN2C(=O)C(c3ccccc3)c3cccc1c32 (centres unmarked) [1-Ethyl-6-phenyl-1H-pyrrolo[1,2,3-de]quinoxalin-2,5(3H,6H)-dione] was tested. Which minimal effective dose did it give?
Its minimal effective dose is 100 mg/kg.

For CN1C(=O)CN2C(=O)C(c3ccccc3)c3cccc1c32 (centres unmarked) [1-Methyl-6-phenyl-1H-pyrrolo 1,2,3-de]quinoxalin-2,5(3H,6H)-dione], which minimal effective dose is on record?
The minimal effective dose was 3.12 mg/kg.

Which minimal effective dose does the source give for O=C1C(c2ccccc2)c2cccc3c2N1CCN3 (centres unmarked) [2,3-dihydro-6-phenyl-1H-pyrrolo[1,2,3-de]quinoxalin-5(6H)-one] here?
Its minimal effective dose is 100 mg/kg.

Which minimal effective dose does the source give for O=C1CCN2C(=O)C(c3ccccc3)c3cccc(c32)N1 (centres unmarked) [3,4-DIHYDRO-7-PHENYL-1H-PYRROLO[ 1,2,3-ef]-BENZO-[ f]DIAZEPINE-2,6(1H,7H)-DIONE] here?
Its minimal effective dose is 50 mg/kg.

O=C1CN2C(=O)C(c3ccc(F)cc3)c3cccc(c32)N1 (centres unmarked) [6-(p-fluoro)phenyl-1H-pyrrolo[1,2,3-de]quinoxalin-2,5 (3H,6H)-dione] was tested. Which minimal effective dose did it give?
The minimal effective dose was 12.5 mg/kg.

Which minimal effective dose does the source give for O=C1CN2C(=O)C(c3ccccc3)c3cccc(c32)N1 (centres unmarked) [6-phenyl-1H-pyrrolo[1,2,3-de]quinoxalin-2,5(3H,6H)-dione] here?
The minimal effective dose was 1.56 mg/kg.

CCC1C(=O)Nc2cccc3c2N1C(=O)C3c1ccccc1 (centres unmarked) [6-phenyl-3-ethyl-1H-pyrrolo[1,2,3-de]quinoxalin-2,5(3H,6H)-dione] was tested. Which minimal effective dose did it give?
Its minimal effective dose is 50 mg/kg.

Which minimal effective dose does the source give for CC1C(=O)Nc2cccc3c2N1C(=O)C3c1ccccc1 (centres unmarked) [6-phenyl-3-methyl-1H-pyrrolo 1,2,3-de]quinoxalin-2,5(3H,6H)-dione] here?
The minimal effective dose was 1.56 mg/kg.

Which minimal effective dose does the source give for O=C1CN2C(=O)C(c3ccccc3)c3cc(Cl)cc(c32)N1 (centres unmarked) [6-phenyl-8-chloro-1H-pyrrolo[1,2,3-de]quinoxalin-2,5(3H,6H)-dione] here?
Its minimal effective dose is 100 mg/kg.

How did the minimal effective dose turn out when COc1cc2c3c(c1)C(c1ccccc1)C(=O)N3CC(=O)N2 (centres unmarked) [6-phenyl-8-methoxy-1H-pyrrolo[1,2,3-de]quinoxalin-2,5(3H,6H)-dione] was run?
The minimal effective dose was 6.25 mg/kg.

For Cc1cc2c3c(c1)C(c1ccccc1)C(=O)N3CC(=O)N2 (centres unmarked) [6-phenyl-8-methyl-1H-pyrrolo[1,2,3-de]quinoxalin-2,5(3H,6H)-dione], which minimal effective dose is on record?
Its minimal effective dose is 3.12 mg/kg.
